Measurements taken from patent publication US12624067B2, “Cyclic peptide, cell scaffold material, cell separating material, and medium” (FUJIFILM Corporation, priority 2019, dated 2026).
pKd: −log10 of the molar value. Numbered stars: 1 amine (or outer) side, 2 acyl side, 3 side chain; on linkers, the order of the positions; unused ones are H or OH. Bridge positions count the residues as written; N and C are the ends. Square brackets hold non-standard residues; d marks the D form. Peptide text beside a SMILES is read from it. hCys = N[C@@H](CCS)C(=O)O; Orn = NCCC[C@H](N)C(=O)O; Dab = NCC[C@H](N)C(=O)O; Dap = NC[C@H](N)C(=O)O; X1 = O=C(C[*:1])[*:2]; X2 = O=C(C[*:2])[*:1]

Tests used:
human integrin αvβ5 = human integrin αvβ5 (Homo sapiens, UniProt P06756+P18084); experiment: Evaluation of integrin binding property (surface plasmon resonance, Biacore 3000, immobilized cyclic peptide); details: peptide immobilized on CM5 sensor chip; human integrin αvβ5 30-1,000 nM, 25° C., HEPES buffer with 5 mM magnesium chloride; read-out: Integrin binding property (dissociation constant)
Protocol: A commercially available CM5 sensor chip (a carboxymethyl dextran introduction type, manufactured by GE Healthcare) was set in a surface plasmon resonance apparatus (product name: Biacore 3000, manufactured by GE Healthcare), the sensor was stabilized at a flow rate of 10 μL/min of a 4-(2-hydroxyethyl)-1-piperazineethanesulfonic acid (HEPES) buffer solution (20 mM HEPES-HCl, 150 mM NaCl, pH 7.4) for surface plasmon resonance (SPR), and 70 μL of a mixed aqueous solution of 0.2 M 1-(3-dimethylaminopropyl)-3-ethylcarbodiimide (EDC) and 0.04 M N-hydroxysuccinimide (NHS) was added thereto. Then, 300 μL of the sample solution of each of the above cyclic peptides diluted to 0.2 g/L with the HEPES buffer solution was supplied to the sensor chip, blocking treatment was subsequently carried out with an ethanolamine solution, and washing was carried out with a sodium hydroxide aqueous solution, whereby immobilization was carried out. However, only for the cyclic peptide 22, in which the number of lysine residues having an amino group as the immobilizing functional group was 1, the sample solution to be supplied to the sensor chip was set to 5,000 μL instead of 300 μL. Similarly; 70 μL of the mixed aqueous solution of 0.2 M EDC and 0.04 M NHS was added to another flow channel of the same sensor chip without immobilizing the sample, and then blocking treatment and washing treatment were carried out. Hereinafter, the obtained immobilization-treated sensor chip is referred to as an “immobilization-treated sensor chip A”.
After adding human integrin αvβ5 for 10 minutes at 25° C., which was diluted to 30 nM using a HEPES buffer solution to which magnesium chloride was added to 5 mM, in each flow channel of the immobilization-treated sensor chip A prepared in (1) above, the same HEPES buffer solution (containing 5 mM magnesium chloride) was allowed to flow as a running buffer for 30 minutes, and measurement was carried out with Biacore 3000.
Then, a regeneration treatment of removing human integrin αvβ5 was carried out by allowing a 0.5 M EDTA aqueous solution to flow through each flow channel for 10 minutes. Further, the above-described measurement process consisting of adding integrin for 10 minutes, allowing a running buffer to flow for 30 minutes, carrying out measurement with Biacore 3000, and carrying out regeneration treatment with 0.5 M EDTA aqueous solution was carried out in the same manner for 100 nM human integrin αvβ5, 300 nM human integrin αvβ5, and 1,000 nM human integrin αvβ5. Dissociation constant between the cyclic peptide and human integrin αvβ5 was calculated from the difference between the value measured by Biacore 3000 in the flow channel immobilized with the cyclic peptide and the value measured by Biacore 3000 in the flow channel unimmobilized with the cyclic peptide, in a case where each concentration of human integrin αvβ5 was allowed to flow; and the integrin binding property was evaluated according to the following evaluation standards. It is preferable that the evaluation result satisfies the evaluation standard A, B, or C.

[1] = Evaluation of molecule stability (alkali treatment, LC/MS residual rate); format: physicochemical; details: 500 μM peptide plus equivalent of 1 M sodium hydroxide, 15° C., 20 minutes, LC/MS peak area
Protocol: The molecule stability of the cyclic peptide was evaluated by analyzing the alkali-treated cyclic peptide aqueous solution by liquid chromatography mass spectroscopy (LC/MS).
The alkali treatment was carried out by the following method. A 500 μM cyclic peptide aqueous solution was prepared, an equivalent of 1 M sodium hydroxide aqueous solution was added to this aqueous solution, and the resultant mixture was incubated at 15° C. for 20 minutes to obtain an alkali-treated cyclic peptide aqueous solution. The cyclic peptide residual rate was calculated by setting the total area of all peaks of the cyclic peptide before alkali treatment in LC/MS to 100% and determining the proportion of the total area of all peaks in LC/MS of the alkali-treated cyclic peptide aqueous solution, and the molecule stability was evaluated according to the following evaluation standards. It is preferable that the evaluation result satisfies the evaluation standard A, B, or C.
The conditions of the LC/MS used for the evaluation of molecule stability were set as follows. • LC apparatus: Prominence series (pump, column oven, autosampler, detector) (manufactured by Shimadzu Corporation) • MS detector: LC/MS2010EV (manufactured by Shimadzu Corporation) • Column: Cadenza CD-C18, inner diameter 2.0 mm×length 250 mm, particle size: 3 μm (manufactured by Imtakt Corporation) • Eluent A: a solution (pH 3) containing 10 mM ammonium formate as a solute, where the solvent is 100% water. • Eluent B: a solution (pH 3) containing 10 mM ammonium formate as a solute, where the solvent is acetonitrile/water=90/10. • Flow rate: 0.2 mL/min • Injection volume: 4 μL • Gradient: 0% to 30%: Eluent B (0 to 30 minutes), 100%: Eluent B (30 to 40 minutes), 0%: Eluent B (40 to 60 minutes)(B indicates the eluent B) • Column temperature: 45° C. • Ionization method: electrospray ionization (ESI) positive, ESI negative

human integrin αvβ5, sequence (P06756 31-889 limits assumed): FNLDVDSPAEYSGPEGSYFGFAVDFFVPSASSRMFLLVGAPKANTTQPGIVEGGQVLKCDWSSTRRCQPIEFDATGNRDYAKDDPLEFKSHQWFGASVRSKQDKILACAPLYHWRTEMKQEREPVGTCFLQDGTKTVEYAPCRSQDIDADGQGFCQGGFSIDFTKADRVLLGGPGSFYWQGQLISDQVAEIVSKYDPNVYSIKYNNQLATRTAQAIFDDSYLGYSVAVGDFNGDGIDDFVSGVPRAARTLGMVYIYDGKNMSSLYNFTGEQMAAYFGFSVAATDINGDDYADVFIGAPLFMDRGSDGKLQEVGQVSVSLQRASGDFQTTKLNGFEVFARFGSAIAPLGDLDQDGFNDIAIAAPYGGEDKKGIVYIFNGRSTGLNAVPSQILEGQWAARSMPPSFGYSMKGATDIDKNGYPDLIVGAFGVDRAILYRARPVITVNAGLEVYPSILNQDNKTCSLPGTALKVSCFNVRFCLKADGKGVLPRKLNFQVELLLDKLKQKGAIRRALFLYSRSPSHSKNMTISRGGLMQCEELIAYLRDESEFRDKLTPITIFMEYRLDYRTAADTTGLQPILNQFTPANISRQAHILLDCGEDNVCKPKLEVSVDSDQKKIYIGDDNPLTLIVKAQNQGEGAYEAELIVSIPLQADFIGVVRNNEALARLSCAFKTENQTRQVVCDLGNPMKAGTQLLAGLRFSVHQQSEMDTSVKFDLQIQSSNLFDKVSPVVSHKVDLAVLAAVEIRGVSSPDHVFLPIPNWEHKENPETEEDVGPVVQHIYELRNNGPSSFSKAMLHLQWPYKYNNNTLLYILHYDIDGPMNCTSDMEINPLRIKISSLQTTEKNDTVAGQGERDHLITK
human integrin αvβ5, sequence (P06756 891-1048 partner limits assumed): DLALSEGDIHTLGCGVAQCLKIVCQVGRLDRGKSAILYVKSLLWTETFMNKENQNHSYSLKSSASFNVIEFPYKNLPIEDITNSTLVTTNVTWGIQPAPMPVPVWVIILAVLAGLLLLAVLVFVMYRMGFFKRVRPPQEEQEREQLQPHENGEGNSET
human integrin αvβ5, sequence (P18084 24-799): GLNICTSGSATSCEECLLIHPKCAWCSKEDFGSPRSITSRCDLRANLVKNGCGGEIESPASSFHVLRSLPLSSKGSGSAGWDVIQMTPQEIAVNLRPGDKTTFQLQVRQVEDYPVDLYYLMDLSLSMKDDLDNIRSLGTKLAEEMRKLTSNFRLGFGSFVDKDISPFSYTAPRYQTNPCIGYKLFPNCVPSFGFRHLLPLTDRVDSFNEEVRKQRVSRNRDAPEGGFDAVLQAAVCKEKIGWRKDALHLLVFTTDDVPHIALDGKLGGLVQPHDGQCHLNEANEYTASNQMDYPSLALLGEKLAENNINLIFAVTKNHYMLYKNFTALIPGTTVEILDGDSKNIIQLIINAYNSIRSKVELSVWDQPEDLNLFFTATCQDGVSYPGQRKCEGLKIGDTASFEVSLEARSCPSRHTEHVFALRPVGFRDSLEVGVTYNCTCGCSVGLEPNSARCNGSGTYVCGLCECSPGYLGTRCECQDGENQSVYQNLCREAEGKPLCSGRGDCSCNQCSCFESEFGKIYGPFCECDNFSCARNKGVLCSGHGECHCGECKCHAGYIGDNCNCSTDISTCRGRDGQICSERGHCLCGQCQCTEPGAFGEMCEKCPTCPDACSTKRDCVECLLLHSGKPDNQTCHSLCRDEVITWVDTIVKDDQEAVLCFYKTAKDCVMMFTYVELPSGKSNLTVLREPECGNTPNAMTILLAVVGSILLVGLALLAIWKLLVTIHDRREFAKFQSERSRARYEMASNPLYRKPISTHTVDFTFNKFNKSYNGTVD

| Structure (SMILES) | pKd (human integrin αvβ5) | Molecule stability (cyclic peptide residual rate) [1] |
| --- | --- | --- |
| CC[C@H](C)[C@@H]1NC(=O)CSCC[C@@H](C(=O)N[C@@H](CCCCN)C(=O)N[C@@H](CCCCN)C(=O)N[C@@H](CCCCN)C(=O)O)NC(=O)[C@H](Cc2ccc(O)cc2)NC(=O)[C@@H]2CCCCNC(=O)CSCC[C@H](NC1=O)C(=O)N[C@@H](CCCNC(=N)N)C(=O)NCC(=O)N[C@@H](CC(=O)O)C(=O)N2 [Cyclic peptide 32] ({CH2CO}-I[hCys]RGDKY[hCys]KKK-OH; linker 2-6 via X1; thioether N-8) | 7.00 to 7.30 | A (The residual rate of the cyclic peptide is 70% or more.) |
| N=C(N)NCCC[C@@H]1NC(=O)[C@@H]2CCSCC(=O)NCCCC[C@H](NC(=O)[C@H](CC(=O)O)NC(=O)CNC1=O)C(=O)N[C@@H](Cc1ccccc1)C(=O)N[C@H](C(=O)N[C@@H](CCCCN)C(=O)N[C@@H](CCCCN)C(=O)N[C@@H](CCCCN)C(=O)O)CCSCC(=O)N[C@@H](Cc1ccc(O)cc1)C(=O)N2 [Cyclic peptide 25] ({CH2CO}-Y[hCys]RGDKF[hCys]KKK-OH; linker 2-6 via X1; thioether N-8) | > 7.30 | A (The residual rate of the cyclic peptide is 70% or more.) |
| CC[C@H](C)[C@@H]1NC(=O)CSC[C@@H](C(=O)N[C@@H](CCCCN)C(=O)N[C@@H](CCCCN)C(=O)N[C@@H](CCCCN)C(=O)O)NC(=O)[C@H](Cc2ccccc2)NC(=O)[C@@H]2CNC(=O)CSC[C@H](NC1=O)C(=O)N[C@@H](CCCNC(=N)N)C(=O)NCC(=O)N[C@@H](CC(=O)O)C(=O)N2 [Cyclic peptide 6] ({CH2CO}-ICRGD[Dap]FCKKK-OH; linker 2-6 via X1; thioether N-8) | 6.70 to 7.00 | B (The residual rate of the cyclic peptide is 50% or more and less than 70%.) |
| CC[C@H](C)[C@@H]1NC(=O)CSCC[C@@H](C(=O)N[C@@H](CCCCN)C(=O)N[C@@H](CCCCN)C(=O)N[C@@H](CCCCN)C(=O)O)NC(=O)[C@H](C)NC(=O)[C@H](Cc2ccccc2)NC(=O)[C@@H]2CCCCNC(=O)CSCC[C@H](NC1=O)C(=O)N[C@@H](CCCNC(=N)N)C(=O)NCC(=O)N[C@@H](CC(=O)O)C(=O)N2 [Cyclic peptide 34] ({CH2CO}-I[hCys]RGDKFA[hCys]KKK-OH; linker 2-6 via X1; thioether N-9) | 7.00 to 7.30 | A (The residual rate of the cyclic peptide is 70% or more.) |
| CC[C@H](C)[C@@H]1NC(=O)CSCC[C@@H](C(=O)N[C@@H](CCCCN)C(=O)N[C@@H](CCCCN)C(=O)N[C@@H](CCCCN)C(=O)O)NC(=O)[C@H](Cc2ccccc2)NC(=O)[C@@H]2CCNC(=O)CSCC[C@H](NC1=O)C(=O)N[C@@H](CCCNC(=N)N)C(=O)NCC(=O)N[C@@H](CC(=O)O)C(=O)N2 [Cyclic peptide 7] ({CH2CO}-I[hCys]RGD[Dab]F[hCys]KKK-OH; linker 2-6 via X1; thioether N-8) | 7.00 to 7.30 | A (The residual rate of the cyclic peptide is 70% or more.) |
| CC(C)[C@@H]1NC(=O)CSCC[C@@H](C(=O)N[C@@H](CCCCN)C(=O)N[C@@H](CCCCN)C(=O)N[C@@H](CCCCN)C(=O)O)NC(=O)[C@H](Cc2ccccc2)NC(=O)[C@@H]2CCCNC(=O)CSCC[C@H](NC1=O)C(=O)N[C@@H](CCCNC(=N)N)C(=O)NCC(=O)N[C@@H](CC(=O)O)C(=O)N2 [Cyclic peptide 41] ({CH2CO}-V[hCys]RGD[Orn]F[hCys]KKK-OH; linker 2-6 via X1; thioether N-8) | 7.00 to 7.30 | A (The residual rate of the cyclic peptide is 70% or more.) |
| C[C@H](N)C(=O)N[C@H]1CCSCC(=O)NCCCC[C@@H](C(=O)N[C@@H](CCCCN)C(=O)N[C@@H](CCCCN)C(=O)N[C@@H](CCCCN)C(=O)O)NC(=O)[C@H](Cc2ccccc2)NC(=O)[C@@H]2CCCCNC(=O)CSCC[C@H](NC1=O)C(=O)N[C@@H](CCCNC(=N)N)C(=O)NCC(=O)N[C@@H](CC(=O)O)C(=O)N2 [Cyclic peptide 36] (H-A[hCys][hCys]RGDKFKKKK-OH; linker 2-9, 3-7 via X1) | 7.00 to 7.30 | A (The residual rate of the cyclic peptide is 70% or more.) |
| CC(C)[C@@H]1NC(=O)CSCC[C@@H](C(=O)N[C@@H](C)C(=O)N[C@@H](CCCCN)C(=O)N[C@@H](CCCCN)C(=O)N[C@@H](CCCCN)C(=O)O)NC(=O)[C@H](Cc2ccccc2)NC(=O)[C@@H]2CCCCNC(=O)CSCC[C@H](NC1=O)C(=O)N[C@@H](CCCNC(=N)N)C(=O)NCC(=O)N[C@@H](CC(=O)O)C(=O)N2 [Cyclic peptide 44] ({CH2CO}-V[hCys]RGDKF[hCys]AKKK-OH; linker 2-6 via X1; thioether N-8) | > 7.30 | A (The residual rate of the cyclic peptide is 70% or more.) |
| N=C(N)NCCC[C@@H]1NC(=O)[C@@H]2CCCNC(=O)CSCC[C@H](NC(=O)[C@H](CC(=O)O)NC(=O)CNC1=O)C(=O)N[C@@H](Cc1ccccc1)C(=O)N[C@H](C(=O)N[C@@H](CCCCN)C(=O)N[C@@H](CCCCN)C(=O)N[C@@H](CCCCN)C(=O)O)CCSCC(=O)N[C@@H](CC(=O)O)C(=O)N2 [Cyclic peptide 39] ({CH2CO}-D[Orn]RGD[hCys]F[hCys]KKK-OH; linker 2-6 via X2; thioether N-8) | > 7.30 | A (The residual rate of the cyclic peptide is 70% or more.) |
| CC[C@H](C)[C@@H]1NC(=O)CSCC[C@@H](C(=O)N[C@@H](CCCCN)C(=O)N[C@@H](CCCCN)C(=O)N[C@@H](CCCCN)C(=O)O)NC(=O)[C@H](Cc2ccccc2)NC(=O)[C@@H]2CCCCNC(=O)CSCC[C@H](NC1=O)C(=O)N[C@@H](CCCNC(=N)N)C(=O)NCC(=O)N[C@@H](CC(=O)O)C(=O)N2 [Cyclic peptide 11] ({CH2CO}-I[hCys]RGDKF[hCys]KKK-OH; linker 2-6 via X1; thioether N-8) | > 7.30 | A (The residual rate of the cyclic peptide is 70% or more.) |
| CC[C@H](C)[C@@H]1NC(=O)CSC[C@@H](C(=O)N[C@@H](CCCCN)C(=O)N[C@@H](CCCCN)C(=O)N[C@@H](CCCCN)C(=O)O)NC(=O)[C@H](Cc2ccccc2)NC(=O)[C@@H]2CCNC(=O)CSC[C@H](NC1=O)C(=O)N[C@@H](CCCNC(=N)N)C(=O)NCC(=O)N[C@@H](CC(=O)O)C(=O)N2 [Cyclic peptide 8] ({CH2CO}-ICRGD[Dab]FCKKK-OH; linker 2-6 via X1; thioether N-8) | > 7.30 | B (The residual rate of the cyclic peptide is 50% or more and less than 70%.) |
| CC[C@H](C)[C@@H]1NC(=O)CSC[C@@H](C(=O)N[C@@H](CCCCN)C(=O)N[C@@H](CCCCN)C(=O)N[C@@H](CCCCN)C(=O)O)NC(=O)[C@H](Cc2ccccc2)NC(=O)[C@@H]2CCNC(=O)CSCC[C@H](NC1=O)C(=O)N[C@@H](CCCNC(=N)N)C(=O)NCC(=O)N[C@@H](CC(=O)O)C(=O)N2 [Cyclic peptide 19] ({CH2CO}-I[hCys]RGD[Dab]FCKKK-OH; linker 2-6 via X1; thioether N-8) | 7.00 to 7.30 | A (The residual rate of the cyclic peptide is 70% or more.) |
